Columns and labels:
DSS-induced colitis = assay: Dextran Sulfate Sodium (DSS)-induced colitis mouse model; format: in vivo, mice; conditions: 2% DSS in drinking water 7 days; 25 μg i.p. on days 0, 1, 2, 4 and 6; FIG. 3
Procedure: As provides in FIG. 3, mice were given water or 2% DSS in their drinking water for 7 days and were treated i.p. with either PBS, vehicle or 25 μg compound of Example 29 (Ex.29) on days 0, 1, 2, 4 and 6 of the experiment. (3A) Body weights were recorded daily. (3B) Mice were sacrificed on day 7 and colon lengths were measured (mean±SE; n=6). (3C) Total mRNA were extracted from the colons on day 7 and the relative expression (RE) of the M2 macrophage markers Relma, and the M1 macrophage markers Ptgs2 (Cox2) and Nos2 were quantified by qPCR (mean±SE; n=6). *, P<0.05; and **, P<0.01 versus DSS+vehicle treated mice.

EAE in C57BL/6 mice = assay: Experimental Autoimmune Encephalomyelitis (EAE) model; format: in vivo; conditions: treated mice; FIG. 1C
Description: EAE is induced in C57BL/6 mice by immunization with an emulsion of MOG35-55 or MOG1-125 in complete Freund's adjuvant (CFA), followed by administration of pertussis toxin (PT) in PBS, first on the day of immunization and then again the following day.

[1] = tested on: LPM in the peritoneal cavity; assay: Numbers of LPM in the peritoneal cavity after i.p. injection; format: in vivo; conditions: injected i.p. into mice; FIG. 1B
human NOD1 = biological target: T1, human NOD1 (Homo sapiens, UniProt Q9Y239); assay: NOD1 functional agonist assay, 293hNOD1-SEAP reporter cells; format: cell-based; conditions: 293hNOD1 cells, OD above 3*O.D of negative control
T1 construct: expressed in transfected cells; host or cells: HEK293
T1 sequence (Q9Y239 1-953): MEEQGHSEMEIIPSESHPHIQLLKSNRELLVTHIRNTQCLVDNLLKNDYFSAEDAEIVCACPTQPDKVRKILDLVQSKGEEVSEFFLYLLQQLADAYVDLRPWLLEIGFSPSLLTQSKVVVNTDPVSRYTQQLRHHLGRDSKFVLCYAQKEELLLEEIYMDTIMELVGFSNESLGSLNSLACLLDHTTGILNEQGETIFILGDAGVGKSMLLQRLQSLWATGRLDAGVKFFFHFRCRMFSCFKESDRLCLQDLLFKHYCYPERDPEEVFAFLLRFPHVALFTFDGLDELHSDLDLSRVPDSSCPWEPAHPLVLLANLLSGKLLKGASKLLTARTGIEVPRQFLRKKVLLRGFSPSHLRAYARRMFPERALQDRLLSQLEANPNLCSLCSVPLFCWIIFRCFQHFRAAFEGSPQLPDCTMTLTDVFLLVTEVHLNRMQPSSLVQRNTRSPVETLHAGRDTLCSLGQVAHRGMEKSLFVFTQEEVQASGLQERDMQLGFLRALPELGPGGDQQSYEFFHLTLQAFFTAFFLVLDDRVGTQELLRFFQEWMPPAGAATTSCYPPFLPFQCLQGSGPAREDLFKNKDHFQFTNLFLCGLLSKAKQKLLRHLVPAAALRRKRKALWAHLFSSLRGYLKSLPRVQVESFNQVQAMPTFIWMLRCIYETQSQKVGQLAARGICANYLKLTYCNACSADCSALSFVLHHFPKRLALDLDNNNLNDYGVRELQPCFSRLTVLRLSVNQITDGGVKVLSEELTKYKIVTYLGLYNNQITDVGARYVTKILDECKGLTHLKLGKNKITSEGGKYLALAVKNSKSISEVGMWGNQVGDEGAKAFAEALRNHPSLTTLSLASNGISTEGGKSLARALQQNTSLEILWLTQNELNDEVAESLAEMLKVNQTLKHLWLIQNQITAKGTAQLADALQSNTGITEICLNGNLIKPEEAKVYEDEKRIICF
Summary of the method: (§1)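 Stably transfected HEK293 cells overexpressing human or murine NOD1 with an NF-κB/AP-1-inducible SEAP reporter; secreted SEAP detected colorimetrically, absorbance read at 620/655 nm. Value is the lowest concentration giving mean OD above 3× the endotoxin-free water negative control; parental 293 SEAP cells lacking NOD1 served as counter-control.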

PEC = assay: IL-10 production by PEC in vitro; format: cell-based; conditions: 24 h stimulation, FIG. 1A
[2] = tested on: DSS-induced inflammation in the colon; assay: DSS-induced inflammation in the colon model; format: in vivo, mice; conditions: 2% DSS in drinking water 7 days; 25 μg i.p. on days 0, 1, 2, 4 and 6; FIG. 4
Procedure: Mice were given water or 2% DSS in their drinking water for 7 days and were treated i.p. with either PBS, vehicle or 25 μg compound of Example 29 (Ex.29) on days 0, 1, 2, 4 and 6 of the experiment. Mice were sacrificed on day 7 and colon sections were prepared and stained with H&E.
Arrows indicate areas of severe inflammatory pathology.

murine NOD1 = biological target: T2, murine NOD1 (Mus musculus, UniProt Q8BHB0); assay: NOD1 functional agonist assay, 293mNOD1-SEAP reporter cells; format: cell-based; conditions: 293mNOD1 cells, OD above 3*O.D of negative control
T2 construct: expressed in transfected cells; host or cells: HEK293
T2 sequence (Q8BHB0 1-953): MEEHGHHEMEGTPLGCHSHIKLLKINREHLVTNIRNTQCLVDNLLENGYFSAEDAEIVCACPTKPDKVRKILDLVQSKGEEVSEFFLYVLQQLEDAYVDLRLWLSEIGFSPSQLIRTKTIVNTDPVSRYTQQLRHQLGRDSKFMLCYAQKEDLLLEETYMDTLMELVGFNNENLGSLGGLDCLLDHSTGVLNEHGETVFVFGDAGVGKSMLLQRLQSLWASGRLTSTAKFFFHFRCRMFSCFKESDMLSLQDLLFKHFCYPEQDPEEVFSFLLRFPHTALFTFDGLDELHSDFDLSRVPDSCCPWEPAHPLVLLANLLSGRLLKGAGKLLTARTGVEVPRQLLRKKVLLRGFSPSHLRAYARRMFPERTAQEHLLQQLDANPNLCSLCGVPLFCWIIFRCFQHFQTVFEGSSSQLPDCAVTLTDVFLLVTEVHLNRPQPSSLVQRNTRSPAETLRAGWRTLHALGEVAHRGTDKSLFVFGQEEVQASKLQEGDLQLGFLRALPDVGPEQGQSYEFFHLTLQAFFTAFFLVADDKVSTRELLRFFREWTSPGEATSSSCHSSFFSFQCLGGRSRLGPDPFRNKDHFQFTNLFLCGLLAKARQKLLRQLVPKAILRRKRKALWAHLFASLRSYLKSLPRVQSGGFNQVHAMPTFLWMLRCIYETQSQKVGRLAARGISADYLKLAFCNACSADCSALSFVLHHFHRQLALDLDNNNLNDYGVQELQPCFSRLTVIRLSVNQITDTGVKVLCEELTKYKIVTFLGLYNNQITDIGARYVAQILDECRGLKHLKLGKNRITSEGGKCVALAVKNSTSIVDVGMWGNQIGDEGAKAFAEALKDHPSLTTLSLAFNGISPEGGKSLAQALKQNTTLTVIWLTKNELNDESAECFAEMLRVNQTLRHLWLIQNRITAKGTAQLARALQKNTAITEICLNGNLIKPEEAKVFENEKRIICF
Summary of the method: as §1

CCCCCCCCCCCCCC(=O)N[C@@H](C)C(=O)N[C@H](CCC(=O)N[C@H](CSC[C@H](N)C(=O)O)C(=O)NCC(=O)O)C(=O)O [Example 29, N^5-((S)-3-(((R)-2-amino-2-carboxyethyl)thio)-1-((carboxymethyl)amino)-1-oxopropan-2-yl)-N^2-(tetradecanoyl-L-alanyl)-D-glutamine]
protection against DSS-induced colitis (DSS-induced colitis): protects mice against DSS-induced colitis | EAE-associated weight loss (EAE in C57BL/6 mice): prevented associated weight loss | clinical course of EAE (EAE in C57BL/6 mice): significantly attenuated | numbers of LPM in the peritoneal cavity [1]: significantly increased | hNod1: concentration where a significant mean optical density (OD) can be observed (human NOD1): 0.0001 µg/mL | production of IL-10 by PEC (PEC): induced the production of significant concentrations of IL-10 | protection against DSS-induced inflammation in the colon [2]: protects mice against DSS-induced inflammation in the colon | mNod1: concentration where a significant mean optical density (OD) can be observed (murine NOD1): 0.001 µg/mL

Reference: US20170210778A1, “NOVEL COMPOUNDS” (The Provost, Fellows, Foundation Scholars, and the other …, priority 2014, published 2017)
